Test results published in ChEMBL document CHEMBL4196049, “β,γ-diamino acids as building blocks for new analogues of Gramicidin S: Synthesis and biological activity” (Eur J Med Chem, 2018).
≈ marks a conversion by molar mass, not a printed value. Non-standard residues stand in square brackets, D forms with d. Residues, ends and D or L forms follow the SMILES beside them. Orn = NCCC[C@H](N)C(=O)O

Tests used:
Enterococcus faecalis [1] = assay: Antibacterial activity against Enterococcus faecalis CIP 103015 after 48 hrs by two-fold serial dilution method; format: functional; settings: CIP 103015, 48 h
Bacillus subtilis = assay: Antibacterial activity against Bacillus subtilis subsp. subtilis CIP 52.65 after 48 hrs by two-fold serial dilution method; format: functional; settings: CIP 52.65, 48 h
Bacillus cereus = assay: Antibacterial activity against Bacillus cereus CIP 66.24 after 48 hrs by two-fold serial dilution method; format: functional; settings: CIP 66.24, 48 h
Enterococcus faecalis [2] = assay: Antibacterial activity against Enterococcus faecalis CIP 103214 after 48 hrs by two-fold serial dilution method; format: functional; settings: CIP 103214, 48 h
Pseudomonas aeruginosa = assay: Antibacterial activity against Pseudomonas aeruginosa CIP 82.118 ATCC 9027 after 48 hrs by two-fold serial dilution method; format: functional; settings: CIP 82.118 ATCC 9027, 48 h
Enterococcus faecium = assay: Antibacterial activity against Enterococcus faecium CIP 103014 after 48 hrs by two-fold serial dilution method; format: functional; settings: CIP 103014, 48 h
Escherichia coli = assay: Antibacterial activity against Escherichia coli CIP 53.126 ATCC 8739 after 48 hrs by two-fold serial dilution method; format: functional; settings: ATCC 8739 = CIP 53.126, 48 h
Streptococcus salivarius = assay: Antibacterial activity against Streptococcus salivarius CIP 102503 after 48 hrs by two-fold serial dilution method; format: functional; settings: CIP 102503, 48 h
Staphylococcus aureus = assay: Antibacterial activity against Staphylococcus aureus subsp. aureus CIP 4.83 ATCC 6538 after 48 hrs by two-fold serial dilution method; format: functional; settings: CIP 4.83 ATCC 6538, 48 h
[3] = Hemolytic activity in human erythrocytes at 50 ug/ml after 30 mins relative to control; format: ADME, cell-based, Erythrocyte; settings: read-out: Activity
[4] = Hemolytic activity in human erythrocytes at 100 ug/ml after 30 mins relative to control; format: ADME, cell-based, Erythrocyte; settings: read-out: Activity

Structure (SMILES)	MIC (Enterococcus faecalis [1]) [µg/mL]	MIC (Bacillus subtilis) [µg/mL]	MIC (Bacillus cereus) [µg/mL]	MIC (Enterococcus faecalis [2]) [µg/mL]	MIC (Pseudomonas aeruginosa) [µg/mL]	MIC (Enterococcus faecium) [µg/mL]	MIC (Escherichia coli) [µg/mL]	MIC (Streptococcus salivarius) [µg/mL]	MIC (Staphylococcus aureus) [µg/mL]	hemolysis at 0.5 h, 50 ug/ml [3] [%]	hemolysis at 0.5 h, 100 ug/ml [4] [%]
CC(C)C[C@@H]1NC(=O)[C@H](CCCN)NC(=O)[C@H](C(C)C)NC(=O)[C@@H]2CCCN2C(=O)[C@@H](Cc2ccccc2)NC(=O)[C@H](CC(C)C)NC(=O)[C@H](CCCN)NC(=O)[C@H](C(C)C)NC(=O)[C@@H]2CCCN2C(=O)[C@@H](Cc2ccccc2)NC1=O (cyclo(V[Orn]L[dF]PV[Orn]L[dF]P))	3.12 (≈ 2.74 µM)	3.12 (≈ 2.74 µM)	6.25 (≈ 5.48 µM)	3.12 (≈ 2.74 µM)	≥ 100	3.12 (≈ 2.74 µM)	12.5 (≈ 11 µM)	3.12 (≈ 2.74 µM)	3.12 (≈ 2.74 µM)		
CC(C)C[C@@H]1NC(=O)[C@H](CCCN)NC(=O)[C@H](C(C)C)NC(=O)[C@@H]2CCCN2C(=O)[C@@H](Cc2ccccc2)NC(=O)[C@H](CC(C)C)NC(=O)[C@H](CCCN)NC(=O)[C@H](C(C)C)NC(=O)[C@@H]2CCCN2C(=O)[C@@H](Cc2ccccc2)NC1=O (cyclo(L[dF]PV[Orn]L[dF]PV[Orn]))										74	83
